Measurements published in patent publication US20060045855A1, “Oral composition for reducing plaque and microbial infections and whitening teeth” (priority 2004, published 2006).

What was measured:
[1] = Time-course of generation of ClO2 after 1:1 mixing of NaClO2 solution and oxidizing agent solution, change in absorption at 360 nm; settings: from NaClO2 in the presence of the oxidizing agent
Excerpt: The pH of the resulting composition should be at or below about 7, but above the pKa of chlorous acid. It is known that ClO2 is generated from NaClO2 at pH values at or below about 7 in the absence of an oxidizing agent such as […]. However, the generation is quite slow (on the order of days and months). In the presence of an oxidizing agent such as […] or tannic acid, under the conditions described above, therapeutically effective levels of ClO2 begin to be generated in seconds, as shown below in Tables 1 and 2. Increasing the concentration of the oxidizing agent by weight will cause a more rapid generation of ClO2.

[2] = same solution as H2O2; cited from earlier work
[3] = standard temperature and pressure; cited from earlier work

Compound	time in which therapeutically effective levels of ClO2 begin to be generated [1]	stability in the presence of H2O2 [2]	solubility in water [3] [g/0.35 mL water]
O=C1O[C@H]([C@@H](O)CO)C(O)=C1O [ascorbic acid]	in seconds	–	–
O=S(=O)([O-])OOS(=O)(=O)[O-].[Na+].[Na+] [sodium persulfate]	–	degrades very quickly	–
O=C(OC[C@H]1O[C@@H](OC(=O)c2cc(O)c(O)c(OC(=O)c3cc(O)c(O)c(O)c3)c2)[C@H](OC(=O)c2cc(O)c(O)c(OC(=O)c3cc(O)c(O)c(O)c3)c2)[C@@H](OC(=O)c2cc(O)c(O)c(OC(=O)c3cc(O)c(O)c(O)c3)c2)[C@@H]1OC(=O)c1cc(O)c(O)c(OC(=O)c2cc(O)c(O)c(O)c2)c1)c1cc(O)c(O)c(OC(=O)c2cc(O)c(O)c(O)c2)c1 [tannic acid]	in seconds	–	1
